pIC50: −log10 of the molar value. Square brackets hold non-standard residues; d marks the D form. Peptide text beside a SMILES is read from it. Aoda(9S-OH) = C[C@H](O)C(=O)CCCCC[C@H](N)C(=O)O; Phe(4-CN) = N#Cc1ccc(C[C@H](N)C(=O)O)cc1; Iva = CC[C@](C)(N)C(=O)O
Columns and labels:
[1] = tested on: splenic cells of Lewis rats; test: Test 2: Determination of T-cell growth inhibitor activity (T lymphocyte blastogenesis test); assay type: cell-based; conditions: Lewis rat splenic cells, Concanavalin A (1 μg/ml), 72 hours, AlamarBlue Assay, read-out: Test 2: T-cell growth inhibitory activity IC50
Description: Test 2: Determination of T-Cell Growth Inhibitor Activity
The T lymphocyte blastogenesis test was performed in microtiter plates with each well containing 1.5×10^5 splenic cells of Lewis rats in 0.1 ml RPMI-1640 medium supplemented with 10% fetal bovine serum (FBS), […] 2-mercaptoethanol, penicilln (100 units/ml) and streptomycin (100 μg/ml), to which Concanavalin A (1 μg/ml) was added. The cells were incubated at 37° C. in a humidified atmosphere of 5% CO2 for 72 hours. After the culture period, suppressive activities of the test compounds in T lymphocyte blastogenesis were quantified by AlamarBlue (trademark) Assay. The test samples were dissolved in DMSO and further diluted with RPMI-1640 medium and added to the culture. The activities of the test compounds were expressed as IC50.

[2] = target: T1, human histone deacetylase; test: Test 1: Determination of histone deacetylase inhibitor activity; assay type: biochemical; conditions: partially purified human histone deacetylase from Jurkat cells; [3H] acetyl-labeled histones; 25° C., 30 minutes; read-out: Test 1: HDAC inhibitory activity IC50
T1 construct: The human histone deacetylase was partially purified from human T cell leukemia Jurkat cells
Description: Test 1: Determination of Histone Deacetylase Inhibitor Activity
The partial purification of human histone deacetylase, the preparation of [^3H] acetyl histones, and the assay for histone deacetylase activity were performed basically according to the method as proposed by Yoshida et al. as follows.
Partial Purification of Human Histone Deacetylase
The human histone deacetylase was partially purified from human T cell leukemia Jurkat cells. Jurkat cells (5×10^8 cells) were suspended in 40 ml of the HDA buffer consisting of 15 mM potassium phosphate, pH 7.5, 5% glycerol and 0.2 mM EDTA. After homogenization, nuclei were collected by centrifugation (35,000×g, 10 min) and homogenized in 20 ml of the same buffer supplemented with 1 M (NH4)2SO4. The viscous homogenate was sonicated and clarified by centrifugation (35,000×g, 10 min), and the deacetylase was precipitated by raising the concentration of (NH4)2SO4 to 3.5 M. The precipitated protein was dissolved in 10 ml of the HDA buffer and dialyzed against 4 liters of the same buffer. The dialyzate was then loaded onto a DEAE-cellulose (Whatman DE52) column (25×85 mm) equilibrated with the same buffer and eluted with 300 ml of a linear gradient (0-0.6 M) of NaCl. A single peak of histone deacetylase activity appeared between 0.3 and 0.4 M NaCl.
Preparation of [^3H] Acetyl Histone
To obtain [^3H] acetyl-labeled histone as the substrate for the histone deacetylase assay, 1×10^8 cells of Jurkat in 20 ml of RPMI-1640 medium (supplemented with 10% FBS, penicillin (50 units/ml) and streptomycin (50 μg/ml)) were incubated with 300 MBq [^3H] sodium acetate in the presence of 5 mM sodium butyrate for 30 minutes in 5% CO2-95% air atmosphere at 37° C. in a 75 cm^2 flask, harvested into a centrifuge tube (50 ml), collected by centrifugation at 1000 rpm for 10 minutes, and washed once with phosphate-buffered saline. The washed cells were suspended in 15 ml of ice-cold lysis buffer (10 mM Tris-HCl, 50 mM sodium bisulfite, 1% Triton X-100, 10 mM MgCl2, 8.6% sucrose, pH 6.5). After Dounce homogenization (30 stroke), the nuclei were collected by centrifugation at 1000 rpm for 10 minutes, washed 3 times with 15 ml of the lysis buffer, and once with 15 ml of ice-cooled washing buffer (10 mM Tris-HCl, 13 mM EDTA, pH 7.4) successively. The pellet was suspended in 6 ml of ice-cooled water using a mixer, and 68 μl of H2SO4 was added to the suspension to give a concentration of 0.4 N. After incubation at 4° C. for 1 hour, the suspension was centrifuged for 5 minutes at 15,000 rpm, and the supernatant was taken and mixed with 60 ml of acetone. After overnight incubation at −20° C., the coagulated material was collected by microcentrifugation, air-dried, and stored at −80° C.
Assay for Histone Deacetylase Activity
For the standard assay, 10 μl of [^3H] acetyl-labeled histones were added to 90 μl of the enzyme fraction, and the mixture was incubated at 25° C. for 30 minutes. The reaction was stopped by addition of 10 μl of HCl. The released [^3H] acetic acid was extracted with 1 ml of ethyl acetate, and 0.9 ml of the solvent layer was taken into 10 ml of toluene scintillation solution for determination of radioactivity.

[3] = tested on: TNFα induced NF-κB activation; test: Test 3: NF-κB reporter gene assay in TNFα-stimulated HEL cells; assay type: cell-based; conditions: HEL cells transfected with pNFκB-TA-Luc, TNFα (10 ng/ml); at doses up to 3 nM; FIG. 2
Description: Test 3: Effect of HDAC Inhibitor on TNFα Induced NF-κB Activation 8.75×10^6 HEL cells (JCRB0062, JCRB) were transfected with 10 μg of pNFκB-TA-Luc (Clontech, as shown in FIG. 1) by electroporation at 1750 V and 10 μF with Gene Pulser II (BIO-RAD). The cells were resuspended in 2 ml of RPMI1640 (SIGMA) supplemented with 10% FBS (MOREGATE) and aliquated 50 μl each well in 96-well tissue culture plates. After 5 hr culture at 37° C., 5% CO2, for cell function recovery, the cells were cultured in the presence or absence of TNFα (10 ng/ml) for 4 hr. TNFα stimulated cells were incubated with Compound E138 or FK506 (commercial available immunosuppresive agent, also referred as Tacrolimus) at appropriate concentrations for 1 hour prior to stimulation. For the NF-κB reporter gene assay, the transfected cells were lysed and assayed for luciferase activity with the Bright-glo Luciferase Assay System (Promega) according to the manufacturer's instructions.

[4] = tested on: MCP-1 production by activated THP-1 cells; test: Test 4: MCP-1 production by activated THP-1 cells (MCP-1 ELISA); assay type: cell-based, human; conditions: PMA 50 ng/mL 16 hours, compound 9 hr, at doses up to 1 nM, FIG. 3
Description: Test 4: Effect of HDAC Inhibitor on MCP-1 Production by Activated THP-1 Cells For the measurement of MCP-1 level by ELISA, 1×10^6 THP-1 cells (JCRB0112, JCRB) were plated in 6-well tissue culture plates. The cells were cultured in RPMI1640 (SIGMA) supplemented with 10% FBS (MOREGATE) in the presence of PMA (SIGMA, 50 ng/mL) for 16 hours at 37° C., 5% CO2. After incubation, the medium was changed to RPMI1640 supplemented with 2% FBS and various concentrations of Compound E138 or FK506 were added. The cells were further cultured for 9 hr and the amount of MCP-1 protein secreted by activated THP-1 cells into the medium was determined by […] Immuno assay System human MCP-1 (Genzyme Techne) according to the manufacturer's instructions.

[5] = tested on: IL-2 mRNA expression in activated Jurkat cells; test: IL-2 mRNA expression in activated Jurkat cells; assay type: cell-based, human; conditions: at 1 nM

| SMILES | pIC50 [1] | pIC50 [2] | effect on TNFα induced NF-κB activation [3] | effect on MCP-1 production by activated THP-1 cells [4] | inhibition of IL-2 mRNA expression [5] |
| --- | --- | --- | --- | --- | --- |
| CC[C@]1(C)NC(=O)[C@H](CCCCCC(=O)[C@@H](C)O)NC(=O)[C@H]2CCCN2C(=O)[C@H](Cc2ccc(OCc3ccccc3)cc2)NC1=O [Compound E6] | > 7.30 | > 7.00 |  |  |  |
| CC[C@]1(C)NC(=O)[C@H](CCCCCC(=O)[C@@H](C)O)NC(=O)[C@H]2CCCN2C(=O)[C@H](Cc2ccc(O)cc2)NC1=O [Compound E8] | > 7.30 | > 7.00 |  |  |  |
| CC[C@]1(C)NC(=O)[C@H](CCCCCC(=O)[C@@H](C)O)NC(=O)[C@H]2CCCN2C(=O)[C@H](Cc2ccc(OC)cc2)NC1=O [Compound E13] | > 7.30 | > 7.00 |  |  |  |
| CC[C@]1(C)NC(=O)[C@H](CCCCCC(=O)[C@@H](C)O)NC(=O)[C@H]2CCCN2C(=O)[C@H](Cc2ccc(F)cc2)NC1=O [Compound E17] | > 7.30 | > 7.00 |  |  |  |
| CC[C@]1(C)NC(=O)[C@H](CCCCCC(=O)[C@H](C)O)NC(=O)[C@H]2CCCN2C(=O)[C@H](Cc2ccc(C#N)cc2)NC1=O [Compound E23] (cyclo([Iva][Phe(4-CN)][dP][Aoda(9S-OH)])) | > 7.30 | > 7.00 |  |  |  |
| CCOc1ccc(C[C@@H]2NC(=O)[C@](C)(CC)NC(=O)[C@H](CCCCCC(=O)[C@@H](C)O)NC(=O)[C@H]3CCCN3C2=O)cc1 [Compound E26] | > 7.30 | > 7.00 |  |  |  |
| CC[C@]1(C)NC(=O)[C@H](CCCCCC(=O)[C@@H](C)O)NC(=O)[C@H]2CCCN2C(=O)[C@H](Cc2ccccc2F)NC1=O [Compound E33] | > 7.30 | > 7.00 |  |  |  |
| CC[C@@H](O)C(=O)CCCCC[C@@H]1NC(=O)[C@H]2CCCN2C(=O)[C@H](Cc2ccccc2F)NC(=O)[C@](C)(CC)NC1=O [Compound E35] | > 7.30 | > 7.00 |  |  |  |
| CC[C@]1(C)NC(=O)[C@H](CCCCCC(=O)[C@@H](C)O)NC(=O)[C@H]2CCCN2C(=O)[C@H](Cc2ccc(Cl)cc2)NC1=O [Compound E38] | > 7.30 | > 7.00 |  |  |  |
| CCC1(CC)NC(=O)[C@H](CCCCCC(=O)[C@@H](C)O)NC(=O)[C@H]2CCCN2C(=O)[C@H](Cc2ccccc2)NC1=O [Compound E41] | > 7.30 | > 7.00 |  |  |  |
| CC[C@@H](O)C(=O)/C=C/CCC[C@@H]1NC(=O)[C@H]2CCCN2C(=O)[C@H](Cc2ccccc2)NC(=O)[C@](C)(CC)NC1=O [Compound E48] | > 7.30 | > 7.00 |  |  |  |
| C=CC[C@@H]1/C=C(\C)C[C@H](C)C[C@H](OC)[C@H]2O[C@@](O)(C(=O)C(=O)N3CCCC[C@H]3C(=O)O[C@H](/C(C)=C/[C@@H]3CC[C@@H](O)[C@H](OC)C3)[C@H](C)[C@@H](O)CC1=O)[C@H](C)C[C@@H]2OC [FK506, Tacrolimus] |  |  | no direct effect | no direct effect | almost completely inhibits |

Reference: patent US20060229236A1, “Cyclic tetrapeptide compound and use thereof” (FUJISAWA PHARMACEUTICAL Co. LTD., priority 2001, published 2006)
